Data reported in patent publication EP4772513A1, “PI3K-ALPHA INHIBITOR AND USE THEREOF” (TYK Medicines (Zhengzhou), Inc., priority 2023, dated 2025).

Legend:
[1] = tested on: Human breast cancer cells SK-BR-3 (WT); test: Cell proliferation inhibition assay (CTG), SK-BR-3 (WT); type: cell-based; settings: SK-BR-3 (WT) cells, 3 days incubation, CTG readout
Protocol: (§1) Cell Proliferation Inhibition Assay
(§2) 1. Experimental Materials
(§3) II. Experimental Protocol
(§4) • a) Cell suspension was prepared; • b) The medium was removed from the culture flask; • c) The cells were rinsed once with PBS; • d) Trypsin was added for digestion, and the cells were centrifuged and collected; • e) The cells were resuspended in medium, counted and adjusted to an appropriate concentration; • f) 100 µL of cell suspension was added to each well of a 96-well plate. One plate was used for each cell line, which was incubated overnight in a 37 °C, 5% CO2 incubator.
(§5) 2. Treatment of Compounds
(§6) • a) Serial dilutions of the test compounds were prepared: The compound was prepared as a 10 mM stock solution. 18 µL of the stock solution was dissolved in 982 µL of the culture medium containing DMSO, followed by 4-fold serial dilutions in culture medium containing 0.5% DMSO to give 9 concentrations. The concentrations of the diluted compound were as follows: 180000 nM, 45000 nM, 11250 nM, 2812.5 nM, 703.13 nM, 175.78 nM, 43.95 nM, 10.99 nM, and 2.75 nM. • b) After thorough mixing, 20 µL of each compound solution was added to the cell plate containing 100 µL of cells per well. Each concentration was tested in triplicate. Final concentrations of the compound were as follows: 30000 nM, 7500 nM, 1875 nM, 468.75 nM, 117.188 nM, 29.30 nM, 7.32 nM, 1.83 nM, and 0.46 nM. • c) The cells were transferred into the incubator and incubated for 3 days.
(§7) The cell plate was removed, 25 µL of CTG reagent was added to each well of the 96-well plate, the mixture was shook on a plate shaker at room temperature for 10 minutes, and the plate was read.
(§8) The cell survival rate was calculated using the following formula (% Cell Survival): % Cell Survival = 100% × (OD_Sample−OD_LCave)/(OD_HC−OD_LCave) [formula] • OD_HC: Reading of the 0.1‰ DMSO control group • OD_Sample: Reading of cells treated with compound • OD_LCave: Reading of blank medium
(§9) Analyzed by Prism: Dose-response-Inhibition - Log (inhibitor) vs response (three parameters for the best fit).

[2] = tested on: Human breast cancer cells T47D (H1047R); test: Cell proliferation inhibition assay (CTG), T47D (H1047R); type: cell-based; settings: 3 days incubation, CTG readout
Protocol: as §1, §2, §3, §4, §5, §6, §7, §8, §9

IC50 ([1]; Homo sapiens, 72 h) [nM] | IC50 ([2]; Homo sapiens, 72 h) [nM] | IC50 [1] [nM] | IC50 [2] [nM] | SMILES
> 5000 | ≤ 500 | – | – | C[C@@H](Nc1ccc(Cl)nc1C(=O)O)c1cc(F)cc2c(=O)c3c(oc12)CN(S(=O)(=O)c1ccccc1C#N)CC3 [Compound C90]
> 5000 | ≤ 500 | – | – | Cc1cc([C@@H](C)Nc2ccccc2C(=O)O)c2oc3c(c(=O)c2c1)CCN(S(=O)(=O)N1CCC(F)(F)CC1)C3 [Compound C153]
> 5000 | ≤ 500 | – | – | Cc1cc([C@@H](C)Nc2ccccc2C(=O)O)c2oc3c(c(=O)c2c1)CCN(S(=O)(=O)N1CCOC(C)(C)C1)C3 [Compound C142]
> 5000 | ≤ 500 | – | – | Cc1cnn(C)c1S(=O)(=O)N1CCc2c(oc3c([C@@H](C)Nc4ccc(Cl)nc4C(=O)O)cc(F)cc3c2=O)C1 [Compound C128]
> 5000 | ≤ 500 | – | – | Cc1cc([C@@H](C)Nc2ccccc2C(=O)O)c2oc3c(c(=O)c2c1)CCN(Cc1ccccc1)C3 [Compound C176]
> 5000 | ≤ 500 | – | – | C[C@@H](Nc1ccccc1C(=O)O)c1cc(F)cc2c(=O)c3c(oc12)CN(S(=O)(=O)c1c(Cl)ccc2c1CCO2)CC3 [Compound C152]
> 5000 | ≤ 500 | – | – | Cc1noc(C)c1S(=O)(=O)N1CCc2c(oc3c([C@@H](C)Nc4ccc(Cl)nc4C(=O)O)cc(F)cc3c2=O)C1 [Compound C118]
> 5000 | ≤ 500 | – | – | Cc1cc(C(C)Nc2ccccc2C(=O)O)c2oc3c(c(=O)c2c1)CCN(C(=O)N1CCCC1)C3 (single isomer, unassigned) [Compound C50]
> 5000 | ≤ 500 | – | – | C[C@@H](Nc1ccccc1C(=O)O)c1cc(F)cc2c(=O)c3c(oc12)CN(S(=O)(=O)N1CCOC2(CC2)C1)CC3 [Compound C148]
> 5000 | 500 to 2000 | – | – | C[C@@H](Nc1ccc(Cl)nc1C(=O)O)c1cc(F)cc2c(=O)c3c(oc12)CN(S(=O)(=O)C1CC1)CC3 [Compound C68]
> 5000 | ≤ 500 | – | – | Cc1cc(C(C)Nc2ccc(Cl)nc2C(=O)O)c2oc3c(c(=O)c2c1)CCN(S(=O)(=O)C(C)C)C3 (single isomer, unassigned) [Compound C49]
> 5000 | 500 to 2000 | – | – | Cc1cc([C@@H](C)Nc2ccccc2C(=O)O)c2oc3c(c(=O)c2c1)CCN(C(C)C)C3 [Compound C171]
> 5000 | ≤ 500 | – | – | Cc1cc([C@@H](C)Nc2ccccc2C(=O)O)c2oc3c(c(=O)c2c1)CCN(S(=O)(=O)Cc1ccccc1)C3 [Compound C181]
– | – | > 5000 | ≤ 500 | Cc1cc(C(C)Nc2ccccc2C(=O)O)c2oc3c(c(=O)c2c1)CCN(C(c1ccccc1)C(F)(F)F)C3 (single isomer, unassigned) [Compound C209]
> 5000 | 500 to 2000 | – | – | C[C@@H](Nc1ccccc1C(=O)O)c1cc(F)cn2c(=O)c3c(nc12)CN(Cc1ccccc1)CC3 [Compound C190]
> 5000 | 500 to 2000 | – | – | Cc1nnn(C)c1S(=O)(=O)N1CCc2c(oc3c([C@@H](C)Nc4ccccc4C(=O)O)cc(F)cc3c2=O)C1 [Compound C157]
> 5000 | 500 to 2000 | – | – | CCOC(=O)c1ccccc1N[C@H](C)c1cc(C)cc2c(=O)c3c(oc12)CN(S(=O)(=O)N1CCOCC1)CC3 [Compound C165]
> 5000 | ≤ 500 | – | – | Cc1cc([C@@H](C)Nc2ccccc2C(=O)O)c2oc3c(c(=O)c2c1)CCN(S(=O)(=O)N1CCO[C@H](C)C1)C3 [Compound C144]
> 5000 | ≤ 500 | – | – | CC(Nc1ccccc1C(=O)O)c1cc(F)cc2c(=O)c3c(oc12)CN(S(=O)(=O)C(C)C)CC3 (single isomer, unassigned) [Compound C39]
> 5000 | ≤ 500 | – | – | Cc1nnn(C)c1S(=O)(=O)N1CCc2c(oc3c([C@@H](C)Nc4ccc(Cl)nc4C(=O)O)cc(F)cc3c2=O)C1 [Compound C134]
> 5000 | ≤ 500 | – | – | Cc1cc(C(C)Nc2ccccc2C(=O)O)c2oc3c(c(=O)c2c1)CCN(S(=O)(=O)N1CCCC1)C3 (single isomer, unassigned) [Compound C56]
> 5000 | ≤ 500 | – | – | CC(Nc1ccccc1C(=O)O)c1cc(F)cc2c(=O)c3c(oc12)CN(C(=O)N1CCC1)CC3 (single isomer, unassigned) [Compound C47]
> 5000 | ≤ 500 | – | – | C[C@@H](Nc1ccc(Cl)nc1C(=O)O)c1cc(F)cc2c(=O)c3c(oc12)CN(S(=O)(=O)c1ccccc1C(F)(F)F)CC3 [Compound C115]

IC50 ([1]; Homo sapiens, 72 h) [nM] | IC50 ([2]; Homo sapiens, 72 h) [nM] | IC50 [1] [nM] | IC50 [2] [nM] | SMILES
> 5000 | ≤ 500 | – | – | C[C@@H]1CN(S(=O)(=O)N2CCc3c(oc4c([C@@H](C)Nc5ccccc5C(=O)O)cc(F)cc4c3=O)C2)CCO1 [Compound C145]
> 5000 | ≤ 500 | – | – | C[C@@H](Nc1ccc(Cl)nc1C(=O)O)c1cc(F)cc2c(=O)c3c(oc12)CN(S(=O)(=O)c1ccccc1)CC3 [Compound C77]
> 5000 | 500 to 2000 | – | – | Cc1cc([C@@H](C)Nc2ccccc2C(=O)O)c2oc3c(c(=O)c2c1)CCN(S(C)(=O)=O)C3 [Compound C168]
> 5000 | ≤ 500 | – | – | Cc1cc([C@@H](C)Nc2ccccc2C(=O)O)c2nc3c(c(=O)n2c1)CCN(S(=O)(=O)c1ccccc1)C3 [Compound C191]
> 5000 | 500 to 2000 | – | – | C[C@@H](Nc1ccc(Cl)nc1C(=O)O)c1cc(F)cc2c(=O)c3c(oc12)CN(S(=O)(=O)c1cccc(C#N)c1)CC3 [Compound C91]
> 5000 | ≤ 500 | – | – | C[C@@H](Nc1ccccc1C(=O)O)c1cc(F)cc2c(=O)c3c(oc12)CN(S(=O)(=O)C1CCOCC1)CC3 [Compound C146]
> 5000 | ≤ 500 | – | – | Cc1nsc(C)c1S(=O)(=O)N1CCc2c(oc3c([C@@H](C)Nc4ccccc4C(=O)O)cc(F)cc3c2=O)C1 [Compound C160]
> 5000 | ≤ 500 | – | – | C[C@@H](Nc1ccc(Cl)nc1C(=O)O)c1cc(F)cc2c(=O)c3c(oc12)CN(S(=O)(=O)c1c(F)cccc1F)CC3 [Compound C114]
> 5000 | ≤ 500 | – | – | [2H]C([2H])([2H])n1ncc(C)c1S(=O)(=O)N1CCc2c(oc3c([C@@H](C)Nc4ccccc4C(=O)O)cc(C)cc3c2=O)C1 [Compound C177]
> 5000 | ≤ 500 | – | – | Cc1noc(C)c1S(=O)(=O)N1CCc2c(oc3c([C@@H](C)Nc4ccccc4C(=O)O)cc(F)cc3c2=O)C1 [Compound C140]
> 5000 | ≤ 500 | – | – | C[C@@H](Nc1ccc(Cl)nc1C(=O)O)c1cc(F)cc2c(=O)c3c(oc12)CN(S(=O)(=O)C1=CCOCC1)CC3 [Compound C138]
> 5000 | ≤ 500 | – | – | Cc1cc([C@@H](C)Nc2ccccc2C(=O)O)c2oc3c(c(=O)c2c1)CCN(S(=O)(=O)c1cccc2c1CCO2)C3 [Compound C149]
> 5000 | 500 to 2000 | – | – | C[C@@H](Nc1ccc(Cl)nc1C(=O)O)c1cc(F)cc2c(=O)c3c(oc12)CN(S(=O)(=O)N1CCC1)CC3 [Compound C73]
> 5000 | ≤ 500 | – | – | Cc1cc([C@@H](C)Nc2ccccc2C(=O)O)c2oc3c(c(=O)c2c1)CCN(c1ccccn1)C3 [Compound C172]
> 5000 | ≤ 500 | – | – | CC[C@@H](C)N1CCc2c(oc3c([C@@H](C)Nc4ccccc4C(=O)O)cc(C)cc3c2=O)C1 [Compound C179]
> 5000 | ≤ 500 | – | – | Cc1cc(C(C)Nc2ccccc2C(=O)O)c2oc3c(c(=O)c2c1)CCN(C(c1ccccc1)C(F)(F)F)C3 (single isomer, unassigned) [Compound C207]
> 5000 | ≤ 500 | – | – | Cc1cc([C@@H](C)Nc2ccccc2C(=O)O)c2oc3c(c(=O)c2c1)CCN(S(=O)(=O)c1ccccc1F)C3 [Compound C162]
> 5000 | ≤ 500 | – | – | CC(Nc1ccccc1C(=O)O)c1cc(F)cc2c(=O)c3c(oc12)CN(C(=O)N1CCCC1)CC3 (single isomer, unassigned) [Compound C41]
> 5000 | 500 to 2000 | – | – | C[C@@H](Nc1ccc(Cl)nc1C(=O)O)c1cc(F)cc2c(=O)c3c(oc12)CN(S(=O)(=O)c1nccn1C)CC3 [Compound C101]
> 5000 | ≤ 500 | – | – | C[C@@H](Nc1ccc(Cl)nc1C(=O)O)c1cc(F)cc2c(=O)c3c(oc12)CN(S(=O)(=O)c1ccccc1F)CC3 [Compound C93]
> 5000 | 500 to 2000 | – | – | C[C@@H](Nc1ccccc1C(=O)O)c1cc(F)cc2c(=O)c3c(oc12)CN(S(=O)(=O)C1CC1)CC3 [Compound C78]
> 5000 | 500 to 2000 | – | – | CC(C)S(=O)(=O)N1CCc2c(oc3c([C@@H](C)Nc4ccc(Cl)nc4C(=O)O)cc(F)cc3c2=O)C1 [Compound C72]
